# Target: T1, MAdCAM-1/α4β7 integrin (Homo sapiens, UniProt P13612+P26010)
# T1 construct: a human B-cell line known to express α4β7 integrin; endogenous in cells; host or cells: RPMI-8866 (human B-cell line)
# T1 sequence (P13612 34-1032): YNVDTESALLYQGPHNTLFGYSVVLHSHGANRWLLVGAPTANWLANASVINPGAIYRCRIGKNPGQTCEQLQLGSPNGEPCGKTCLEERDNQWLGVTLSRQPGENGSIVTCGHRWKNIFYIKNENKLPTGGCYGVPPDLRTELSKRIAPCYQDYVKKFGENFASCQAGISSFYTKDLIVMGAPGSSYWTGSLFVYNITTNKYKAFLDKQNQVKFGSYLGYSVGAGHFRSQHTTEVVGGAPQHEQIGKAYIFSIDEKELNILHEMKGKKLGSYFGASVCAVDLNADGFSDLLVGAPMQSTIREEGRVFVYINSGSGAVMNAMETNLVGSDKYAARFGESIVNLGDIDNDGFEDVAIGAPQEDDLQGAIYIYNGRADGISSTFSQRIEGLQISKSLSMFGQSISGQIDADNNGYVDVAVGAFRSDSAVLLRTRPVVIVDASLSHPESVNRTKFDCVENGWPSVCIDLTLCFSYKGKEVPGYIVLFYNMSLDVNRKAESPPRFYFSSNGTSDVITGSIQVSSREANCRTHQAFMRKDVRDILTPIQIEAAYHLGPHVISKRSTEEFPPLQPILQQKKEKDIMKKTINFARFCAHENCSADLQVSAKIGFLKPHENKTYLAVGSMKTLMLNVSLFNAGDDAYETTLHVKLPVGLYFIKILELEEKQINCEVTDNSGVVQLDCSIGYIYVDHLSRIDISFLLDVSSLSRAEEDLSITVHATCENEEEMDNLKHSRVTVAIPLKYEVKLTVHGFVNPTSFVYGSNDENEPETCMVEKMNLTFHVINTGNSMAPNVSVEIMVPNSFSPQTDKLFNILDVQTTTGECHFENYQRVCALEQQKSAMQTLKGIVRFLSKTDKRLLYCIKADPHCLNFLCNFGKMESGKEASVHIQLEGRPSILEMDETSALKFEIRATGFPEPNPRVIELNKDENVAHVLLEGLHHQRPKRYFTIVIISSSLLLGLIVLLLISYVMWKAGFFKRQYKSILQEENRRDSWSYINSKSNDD
# T1 sequence (P26010 20-798): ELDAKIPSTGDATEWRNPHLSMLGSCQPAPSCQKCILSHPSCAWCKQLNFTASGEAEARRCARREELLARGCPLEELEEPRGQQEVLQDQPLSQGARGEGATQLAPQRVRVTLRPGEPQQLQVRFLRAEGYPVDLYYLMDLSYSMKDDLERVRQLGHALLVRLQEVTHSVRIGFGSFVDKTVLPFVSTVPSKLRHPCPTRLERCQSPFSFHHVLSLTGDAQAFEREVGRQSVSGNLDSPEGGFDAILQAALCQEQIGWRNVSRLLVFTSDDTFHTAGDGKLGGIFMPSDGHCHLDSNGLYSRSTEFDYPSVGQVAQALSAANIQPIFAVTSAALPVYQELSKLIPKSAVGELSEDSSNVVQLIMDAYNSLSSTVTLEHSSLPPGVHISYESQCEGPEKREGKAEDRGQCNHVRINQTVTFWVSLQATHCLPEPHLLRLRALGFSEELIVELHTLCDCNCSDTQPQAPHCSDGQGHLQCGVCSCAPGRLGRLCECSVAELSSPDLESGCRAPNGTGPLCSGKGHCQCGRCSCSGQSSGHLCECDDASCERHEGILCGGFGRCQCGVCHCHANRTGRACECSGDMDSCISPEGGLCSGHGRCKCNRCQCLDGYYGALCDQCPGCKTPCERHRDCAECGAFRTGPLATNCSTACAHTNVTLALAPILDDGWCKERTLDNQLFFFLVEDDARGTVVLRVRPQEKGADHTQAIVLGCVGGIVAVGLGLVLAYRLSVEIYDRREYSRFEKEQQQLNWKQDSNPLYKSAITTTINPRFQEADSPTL
# Experiment: Evaluation test (1) for MAdCAM-1/α4β7 integrin binding inhibitory activity in the presence of serum (RPMI-8866 cell binding to MAdCAM-1/Fc)
# Type: cell-based
# Conditions: RPMI-8866 cells, recombinant mouse MAdCAM-1/Fc, human serum at final concentration of 50%; read-out: α4β7 Serum Activity rank when α4β7 serum was added
# Description: The selectivity was determined by dividing the IC50 value in the evaluation test for VCAM-1/α4β1 integrin binding inhibitory activity by the IC50 value in the evaluation test for MAdCAM-1/α4β7 integrin binding inhibitory activity. • (3) Evaluation Test (1) for MAdCAM-1/α4β7 Integrin Binding Inhibitory Activity in the Presence of Serum
# The ability of test substances to inhibit the binding of RPMI-8866 cell line, a human B-cell line known to express α4β7 integrin, to MAdCAM-1 was examined.
# A 96-well microtiter plate was coated overnight at 4° C. with a recombinant mouse MAdCAM-1/Fc (R&D systems) solution diluted with the buffer A (carbonate buffer, pH 9.6). After washing once with PBS, 150 μL/well of Block Ace (manufactured by Snow Brand Milk Products Co., Ltd.) was added, and it was incubated at room temperature for 2 hours. After removal, it was washed once with PBS.
# 100 μL of each of test substances and RPMI-8866 cells diluted with a binding buffer solution (DMEM containing 40 mM HEPES, 0.2% BSA, and 4 mM MnCl2) to various concentrations was added to the plate coated with MAdCAM-1/Fc, so that human serum was contained at a final concentration of 50%, and it was incubated at 30° C. for 15 minutes to 60 minutes. After the cells were bound to the wells, unbound cells were removed by washing with PBS. 50 μL/well of the buffer solution C (PBS containing 1.5% Triton X-100) was added to the plate to dissolve the bound RPMI-8866 cells. 30 μL of substrate buffer (Promega, CytoTox 96 Non-Radioactive Cytotoxicity Assay) was added to 30 μL of a cell lysate to allow a reaction for 30 minutes at room temperature in a dark place. 30 μL of stop solution (Promega, CytoTox 96 Non-Radioactive Cytotoxicity Assay) was added thereto to determine the absorbance at 490 nm using a plate reader. The absorbance was obtained herein by detecting the activity of lactate dehydrogenase (LDH) eluted in a supernatant of each well, that is, the absorbance is proportional to the number of RPMI-8866 cells remaining on the plate by being bound to MAdCAM-1. The test was duplicated, and the cell binding rate at various concentrations with the absorbance of the well containing no test substance being taken as 100% was determined, to calculate the concentration IC50 at which 50% of binding was inhibited.
row,SMILES,IC50
1,"Cn1c(=O)n(-c2ccc(C[C@H](NC(=O)c3cc(F)c(NS(=O)(=O)c4ccc(-c5cnc(C6CCNCC6)nc5)cc4)cc3F)C(=O)O)nc2)c(=O)c2ccncc21 [Example 26, (2S)-2-[[2,5-Difluoro-4-[[4-[2-(4-piperidyl)pyrimidin-5-yl]phenyl]sulfonylamino]benzoyl]amino]-3-[5-(1-methyl-2,4-dioxo-pyrido[3,4-d]pyrimidin-3-yl)-2-pyridyl]propanoic acid]",0.01 to 0.05 µM
2,"Cn1c(=O)n(-c2ccc(C[C@H](NC(=O)c3cc(F)c(NS(=O)(=O)c4ccc(-c5cnc(C6CCOCC6)nc5)cc4)cc3F)C(=O)O)nc2)c(=O)c2ccncc21 [Example 27, (2S)-2-[[2,5-Difluoro-4-[[4-(2-tetrahydropyran-4-ylpyrimidin-5-yl)phenyl]sulfonylamino]benzoyl]amino]-3-[5-(1-methyl-2,4-dioxo-pyrido[3,4-d]pyrimidin-3-yl)-2-pyridyl]propionic acid]",0.05 to 0.2 µM
3,"COCc1ncc(-c2ccc(S(=O)(=O)Nc3cc(F)c(C(=O)N[C@@H](Cc4ccc(-n5c(=O)c6ccncc6n(C)c5=O)cn4)C(=O)O)cc3F)cc2)cn1 [Example 28, (2S)-2-[[2,5-Difluoro-4-[[4-[2-(methoxymethyl)pyrimidin-5-yl]phenyl]sulfonylamino]benzoyl]amino]-3-[5-(1-methyl-2,4-dioxo-pyrido[3,4-d]pyrimidin-3-yl)-2-pyridyl]propanoic acid]",0.01 to 0.05 µM
4,"COCc1cn(-c2ccc(S(=O)(=O)Nc3cc(F)c(C(=O)N[C@@H](Cc4ccc(-n5c(=O)c6ccncc6n(C)c5=O)cn4)C(=O)O)cc3F)cc2)nn1 [Example 29, (2S)-2-[[2,5-Difluoro-4-[[4-[4-(methoxymethyl)triazol-1-yl]phenyl]sulfonylamino]benzoyl]amino]-3-[5-(1-methyl-2,4-dioxo-pyrido[3,4-d]pyrimidin-3-yl)-2-pyridyl]propanoic acid]",0.05 to 0.2 µM
5,"C=CCn1cc(-c2ccc(S(=O)(=O)Nc3cc(F)c(C(=O)N[C@@H](Cc4ccc(-n5c(=O)c6ccncc6n(C)c5=O)cn4)C(=O)O)cc3F)cc2)cnc1=O [Example 30, (2S)-2-[[4-[[4-(1-Allyl-2-oxo-pyrimidin-5-yl)phenyl]sulfonylamino]-2,5-difluoro-benzoyl]amino]-3-[5-(1-methyl-2,4-dioxo-pyrido[3,4-d]pyrimidin-3-yl)-2-pyridyl]propanoic acid]",0.01 to 0.05 µM

# Results, then the compound that gave them:
row,IC50,SMILES
1,0.01 to 0.05 µM,"CN(C)CCc1ncc(-c2ccc(S(=O)(=O)Nc3cc(F)c(C(=O)N[C@@H](Cc4ccc(-n5c(=O)c6ccncc6n(C)c5=O)cn4)C(=O)O)cc3F)cc2)cn1 [Example 33, (2S)-2-[[4-[[4-[2-(2-Dimethylaminoethyl)pyrimidin-5-yl]phenyl]sulfonylamino]-2,5-difluoro-benzoyl]amino]-3-[5-(1-methyl-2,4-dioxo-pyrido[3,4-d]pyrimidin-3-yl)-2-pyridyl]propanoic acid]"
2,0.01 to 0.05 µM,"Cn1c(=O)n(-c2ccc(C[C@H](NC(=O)c3cc(F)c(NS(=O)(=O)c4ccc(-c5ccnc(C6CCOCC6)c5)cn4)cc3F)C(=O)O)nc2)c(=O)c2ccncc21 [Example 34, (2S)-2-[[2,5-Difluoro-4-[[5-(2-tetrahydropyran-4-yl-4-pyridyl)-2-pyridyl]sulfonylamino]benzoyl]amino]-3-[5-(1-methyl-2,4-dioxo-pyrido[3,4-d]pyrimidin-3-yl)-2-pyridyl]propanoic acid]"
3,0.05 to 0.2 µM,"Cc1c(-c2ccc(C[C@H](NC(=O)c3cc(F)c(NS(=O)(=O)c4ccc(-c5cnc(N6CCC6)nc5)cc4)cc3F)C(=O)O)cc2)c(=O)n(C)c(=O)n1C [Example 36, (2S)-2-[[4-[[4-[2-(Azetidin-1-yl)pyrimidin-5-yl]phenyl]sulfonylamino]-2,5-difluoro-benzoyl]amino]-3-[4-(1,3,4-trimethyl-2,6-dioxo-pyrimidin-5-yl)phenyl]propanoic acid]"

# From patent publication US9822110B2, “Sulfonamide derivative and pharmaceutical use thereof” (EA Pharma Co., Ltd., priority 2013, dated 2017)
